From patent US20140221206A1, “HERBICIDAL COMPOSITION COMPRISING POLYMERIC MICROPARTICLES CONTAINING A HERBICIDE” (SYNGENTA LIMITED, priority 2011, published 2014)

Test system: AVEFA, LOLMU, ALOMY, SETVI
Experiment: Assay 3—Glasshouse assay for pinoxaden antagonism (grass species)
Conditions: used with Axial (pinoxaden) + Adigor adjuvant
Experimental: A suitable glasshouse assay/test, to determine whether or not the “first herbicide”, when in a salt-free form and when not contained within polymeric microparticles, antagonises the herbicidal activity of pinoxaden, is as follows.
The troughs are watered appropriately and are not supplied with additional nutrients throughout the course of the test. […] The pinoxaden is typically used in a commercial formulation applied with recommended tank-mix adjuvants.
Crop injury (e.g. to wheat) is recorded at both 7 and 14-16 days after application; weed efficacy is only recorded at 14-16 days after application. A visual, 0-100% assessment scale is used, where 0%=no visible effects and 100%=complete plant destruction.
For example, dicamba can be applied at ca. 240 g/ha (or alternatively at from 100 to 140, e.g. ca. 120, g/ha), measured as the free acid; MCPA and/or 2,4-D can be applied at ca. 500 g/ha, measured as the free acid.
Alternatively, application rates may be identified from journal, book and/or patent publications for the specific active ingredient under test.
Antagonism of pinoxaden may then be determined by the application of Colby's formula:
(Observed 1+Observed 2)−((Observed 1×Observed 2)/100),
Where observed values are smaller than the calculated expected value, antagonism is deemed to have occurred.

Row | Compound | antagonism of pinoxaden grass-herbicidal activity (in words)
1 | Cc1cc(Cl)ccc1OCC(=O)O [MCPA acid, (4-chloro-2-methylphenoxy)acetic acid] | some reductions in pinoxaden herbicidal activity on the grassy weed species AVEFA, ALOMY and LOLMU
2 | COc1c(Cl)ccc(Cl)c1C(=O)O [dicamba acid, 3,6-dichloro-2-methoxybenzoic acid] | some reductions in pinoxaden herbicidal activity on the grassy weed species AVEFA, ALOMY and LOLMU
3 | O=C(O)COc1ccc(Cl)cc1Cl [2,4-D acid, (2,4-dichlorophenoxy)acetic acid] | some reductions in pinoxaden herbicidal activity on the grassy weed species AVEFA, ALOMY, SETVI and LOLMU
